Experimental findings from patent US9127044B2, “Cyclic depsipeptides” (NOVARTIS AG, priority 2007, dated 2015) are described below.

In assay [1] the target is T1, Human neutrophil elastase (Homo sapiens, UniProt P08246).
T1 construct: purchased Elastin Products Company, Inc. (EPC, Owensville, USA) SE563
T1 sequence (P08246 30-267): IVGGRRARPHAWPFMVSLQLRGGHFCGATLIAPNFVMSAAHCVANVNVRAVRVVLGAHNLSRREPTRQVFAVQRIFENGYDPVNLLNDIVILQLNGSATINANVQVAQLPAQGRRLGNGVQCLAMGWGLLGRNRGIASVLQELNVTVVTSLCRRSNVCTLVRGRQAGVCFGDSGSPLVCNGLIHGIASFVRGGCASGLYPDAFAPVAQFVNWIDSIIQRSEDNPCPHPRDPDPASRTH
Briefly: HNE inhibitory activity in vitro (fluorescence-quenched substrate). Type of assay: biochemical. As to conditions: Table 11; read-out: human neutrophile elastase IC 50. The protocol:
Human neutrophil elastase (cat. no. SE563) is purchased from Elastin Products Company, Inc. (EPC, Owensville, USA). The dry powder (purity >95% stated by the supplier) was dissolved in 20 mM sodium acetate buffer, pH 5.0, 50% (v/v) glycerol, and frozen at −80° C. in aliquots.
The fluorescence-quenched substrate (DABCYL-Ser-Glu-Val^Asn-Leu-Asp-Ala-Glu-Phe-EDANS, where ^ indicates the scissile bond, identified by MS analysis) was purchased from Bachem AG (Bubendorf, Switzerland), and kept as a 5 mM stock solution in DMSO at −20° C. All other chemicals were of analytical grade.
Enzymatic reactions were conducted in 100 mM Tris/HCl buffer at pH 7.5, containing 500 mM NaCl, and 0.05% (w/v) CHAPS.
All protein and peptide containing solutions are handled in siliconized tubes (Life Systems Design, Merenschwand, Switzerland).
The compound solutions as well as the enzyme and the substrate solutions are transferred to the 384-well plates (black Cliniplate; cat. no. 95040020 Labsystems Oy, Finland) by means of a CyBi-Well 96-channel pipettor (CyBio AG, Jena, Germany).
(§1) For fluorescence intensity (FI) measurements an Ultra Evolution reader (TECAN, Maennedorf, Switzerland) is used. The instrument is equipped with a combination of a 350 nm (20 nm bandwidth) and a 500 nm (25 nm bandwidth) bandpass filter for fluorescence excitation and emission acquisition, respectively. To increase the signal:background ratio, an appropriate dichroic mirror is employed. The optical filters and the dichroic mirror are purchased from TECAN. The fluorophores in each well are excited by three flashes per measurement.

In another assay the target is human kallikrein 7 (Homo sapiens, UniProt P49862). Briefly: Kallikrein-7 inhibitory activity in vitro (fluorescence-quenched substrate). The class given is biochemical. The protocol: (§2) IC50 for human kallikrein can be measured using the fluorescence-quenched substrate Ac-Glu-Asp(EDANS)-Lys-Pro-Ale-Leu-Phe^Arg-Leu-Gly-Lys(DABCYL)-Glu-NH2 (where ^ indicates the scissile bond, identified by MS analysis) which can be purchased from Biosyntan (Berlin, Germany). Enzymatic reactions are conducted in 50 mM sodium citrate buffer at pH 5.6 containing 150 mM NaCl and 0.05% (w/v) CHAPS. For the determination of IC50 values the assay is performed at room temperature in 384-well plates. All final assay volumes are 30 μl. Test compounds are dissolved in 90% (v/v) DMSO/water and diluted in water (containing 0.05% (w/v) CHAPS) to 3-times the desired assay concentration. The 11 final compound concentrations are: 0.3 nM, 1 nM, 3 nM, 10 nM, 30 nM, 100 nM, 300 nM, 1 μM, 3 μM, 10 μM and 30 μM. For each assay, 10 μl water/CHAPS (±test compound) are added per well, followed by 10 μl protease solution (diluted with 1.5× assay buffer). The protease concentration in final assay solution is 0.2 nM (according to the enzyme concentrations determined by the Bradford method). After 1 hour of incubation at room temperature, the reaction is started by addition of 10 μl substrate solution (substrate dissolved in 1.5× assay buffer, final concentration is 2 μM). […] The IC50 value is calculated from the plot of percentage of inhibition vs. inhibitor concentration using non-linear regression analysis software (XLfit, Vers. 4.0; ID Business Solution Ltd., Guildford, Surrey, UK).
The fluorescence-quenched substrate Ac-Glu-Asp(EDANS)-Lys-Pro-Ale-Leu-Phe^Arg-Leu-Gly-Lys(DABCYL)-Glu-NH2 (where ^ indicates the scissile bond, identified by MS analysis) is purchased from Biosyntan (Berlin, Germany) and kept as a 5 mM stock solution in DMSO at −20° C. All other chemicals are of analytical grade.
Enzymatic reactions are conducted in 50 mM sodium citrate buffer at pH 5.6 containing 150 mM NaCl and 0.05% (w/v) CHAPS.
All protein and peptide containing solutions are handled in siliconized tubes (Life Systems Design, Merenschwand, Switzerland). The compound solutions as well as the enzyme and the substrate solutions are transferred to the 384-well plates (black Cliniplate; cat. no. 95040020 Labsystems Oy, Finland) by means of a CyBi-Well 96-channel pipettor (CyBio AG, Jena, Germany).
as §1
as §2, with “For” for “IC50 for human kallikrein can be measured using the fluorescence-quenched substrate Ac-Glu-Asp(EDANS)-Lys-Pro-Ale-Leu-Phe^Arg-Leu-Gly-Lys(DABCYL)-Glu-NH2 (where ^ indicates the scissile bond, identified by MS analysis) which can be purchased from Biosyntan (Berlin, Germany). Enzymatic reactions are conducted in 50 mM sodium citrate buffer at pH 5.6 containing 150 mM NaCl and 0.05% (w/v) CHAPS. For”, “volumes were” for “volumes are”, “concentration was” for “concentration is”

[2] abbreviates: Table 11, read-out: hKallikrein7 IC 50.

Where two headings read alike, the source gives them in different places.

human kallikrein 7, sequence (P49862 30-253): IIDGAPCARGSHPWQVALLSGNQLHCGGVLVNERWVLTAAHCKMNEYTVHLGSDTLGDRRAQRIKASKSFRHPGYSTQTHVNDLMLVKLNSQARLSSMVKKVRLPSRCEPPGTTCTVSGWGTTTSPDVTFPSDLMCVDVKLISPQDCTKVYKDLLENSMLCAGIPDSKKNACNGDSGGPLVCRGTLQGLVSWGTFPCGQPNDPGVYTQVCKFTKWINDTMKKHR

Turning to `CCC(C)C1NC(=O)C(Cc2ccc(OC(=O)OC3CCC4(C)C(=CCC5C4CCC4(C)C(C(C)CCCC(C)C)CCC54)C3)cc2)N(C)C(=O)C(C(C)CC)N2CCCC(NC(=O)C(CC(C)C)NC(=O)C(NC(=O)C(CCC(N)=O)NC(=O)C(C)C)C(C)OC1=O)C2=O` (stereo not drawn) [example 30], the IC50 in assay [1] turned out to be 4550 nM; at human kallikrein 7 (setting [2]), 1050 nM.

Regarding `CCCCCCCCOC(=O)Oc1ccc(C[C@H]2C(=O)N[C@@H](C(C)CC)C(=O)O[C@H](C)[C@H](NC(=O)[C@H](CCC(N)=O)NC(=O)C(C)C)C(=O)N[C@@H](CC(C)C)C(=O)NC3CCCN(C3=O)[C@@H](C(C)CC)C(=O)N2C)cc1` (stereo partly drawn) [example 31], the figures for the IC50 (in assay [1]; on human kallikrein 7 (setting [2])) were 300 nM and 200 nM, respectively.

As for `CCCOC1CCC2NC(=O)C(CC(C)C)NC(=O)C(NC(=O)C(CCC(N)=O)NC(=O)C(C)C)C(C)OC(=O)C(C(C)CC)NC(=O)C(Cc3ccc(OCC=Cc4ccccc4)cc3)N(C)C(=O)C(C(C)CC)N1C2=O` (stereo not drawn) [example 32], the IC50 came out at 30 nM in assay [1] and 100 nM on human kallikrein 7 (setting [2]).

Take `CCC(C)[C@@H]1NC(=O)[C@H](Cc2ccc(OCC(=O)OC(C)(C)C)cc2)N(C)C(=O)[C@H](C(C)CC)N2CCCC(NC(=O)[C@H](CC(C)C)NC(=O)[C@@H](NC(=O)[C@H](CCC(N)=O)NC(=O)C(C)C)[C@@H](C)OC1=O)C2=O` (stereo partly drawn) [example 33]: the IC50 in assay [1] was 35 nM; on human kallikrein 7 (setting [2]), 4.5 nM; on human kallikrein 7 (read-out: IC50 for human kallikrein 7) it was 5 nM.

For the compound `CCCOC1CCC2NC(=O)C(CC(C)C)NC(=O)C(NC(=O)C(CCC(N)=O)NC(=O)C(C)C)C(C)OC(=O)C(C(C)CC)NC(=O)C(Cc3ccc(OCC(=O)OC(C)(C)C)cc3)N(C)C(=O)C(C(C)CC)N1C2=O` (stereo not drawn) [example 34], the results for the IC50 (in assay [1]; on human kallikrein 7 (setting [2])) were 5 nM and 4 nM, respectively.

On to `CCC=CCOc1ccc(CC2C(=O)NC(C(C)CC)C(=O)OC(C)C(NC(=O)C(CCC(N)=O)NC(=O)C(C)C)C(=O)NC(CC(C)C)C(=O)NC3CCC(OCCC)N(C3=O)C(C(C)CC)C(=O)N2C)cc1` (stereo not drawn) [example 35], for which the values for the IC50 (in assay [1]; on human kallikrein 7 (setting [2])) were 3 nM and 8.5 nM, respectively.

On to `CCCOC1CCC2NC(=O)C(CC(C)C)NC(=O)C(NC(=O)C(CCC(N)=O)NC(=O)C(C)C)C(C)OC(=O)C(C(C)CC)NC(=O)C(Cc3ccc(OCC=CC(F)(F)F)cc3)N(C)C(=O)C(C(C)CC)N1C2=O` (stereo not drawn) [example 36], for which the values for the IC50 (in assay [1]; on human kallikrein 7 (setting [2])) were 3.5 nM and 8.5 nM, respectively.

Turning to `CCCOC1CCC2NC(=O)C(CC(C)C)NC(=O)C(NC(=O)C(CCC(N)=O)NC(=O)C(C)C)C(C)OC(=O)C(C(C)CC)NC(=O)C(Cc3ccc(OC)cc3)N(C)C(=O)C(C(C)CC)N1C2=O` (stereo not drawn) [example 37], the results for the IC50 (in assay [1]; on human kallikrein 7 (setting [2])) were 2.5 nM and 4.5 nM, respectively.

On to `CCCOC1CCC2NC(=O)C(CC(C)C)NC(=O)C(NC(=O)C(CCC(N)=O)NC(=O)C(C)C)C(C)OC(=O)C(C(C)CC)NC(=O)C(Cc3ccc(OCC=C(C)C)cc3)N(C)C(=O)C(C(C)CC)N1C2=O` (stereo not drawn) [example 38], for which the results for the IC50 (in assay [1]; at human kallikrein 7 (setting [2])) were 1.5 nM and 4 nM, respectively.

Consider `CCCOC1CCC2NC(=O)C(CC(C)C)NC(=O)C(NC(=O)C(CCC(N)=O)NC(=O)C(C)C)C(C)OC(=O)C(C(C)CC)NC(=O)C(Cc3ccc(OCc4ccccc4)cc3)N(C)C(=O)C(C(C)CC)N1C2=O` (stereo not drawn) [example 39], for which the IC50 came out at 3.5 nM in assay [1] and 8.5 nM at human kallikrein 7 (setting [2]).

Turning to `C=CCOc1ccc(CC2C(=O)NC(C(C)CC)C(=O)OC(C)C(NC(=O)C(CCC(N)=O)NC(=O)C(C)C)C(=O)NC(CC(C)C)C(=O)NC3CCC(OCCC)N(C3=O)C(C(C)CC)C(=O)N2C)cc1` (stereo not drawn) [example 40], the IC50 was 2.5 nM in assay [1] and 6.5 nM on human kallikrein 7 (setting [2]).

Take `C#CCOc1ccc(CC2C(=O)NC(C(C)CC)C(=O)OC(C)C(NC(=O)C(CCC(N)=O)NC(=O)C(C)C)C(=O)NC(CC(C)C)C(=O)NC3CCC(OCCC)N(C3=O)C(C(C)CC)C(=O)N2C)cc1` (stereo not drawn) [example 41]: the IC50 in assay [1] came to 1 nM; on human kallikrein 7 (setting [2]), 2 nM.

In the case of `CCCOC1CCC2NC(=O)C(CC(C)C)NC(=O)C(NC(=O)C(CCC(N)=O)NC(=O)C(C)C)C(C)OC(=O)C(C(C)CC)NC(=O)C(Cc3ccc(OCc4cc(C)n(C)n4)cc3)N(C)C(=O)C(C(C)CC)N1C2=O` (stereo not drawn) [example 42], the IC50 (in assay [1]; at human kallikrein 7 (setting [2])) was 1 nM throughout.
